Structures are written as SMILES. Counter-ions that a name gives are not always drawn.

Drawing on US9212170B2, “4-alkanoylamino-3-pyrazolone derivative” (Daiichi Sankyo Company, Limited, priority 2012, dated 2015), this text covers fold induction for 27 molecules.

The assay relates to human liver cancer-derived cell line Hep3B. Put plainly: In vitro erythropoietin (EPO) induction activity in Hep3B cells (human EPO ELISA of culture supernatant). Format: cell-based. The following applies: test compound 12.5 μM in 0.5% DMSO, 32 hours at 37° C., EPO in culture supernatant expressed as a multiple of the control (0.5% DMSO = 1), read-out: EPO concentration (multiple). The protocol: In vitro erythropoietin (EPO) induction activity of test compounds was evaluated using human liver cancer-derived cell line Hep3B (ATCC, Manassas, Va.). Hep3B cells were cultured overnight at 37° C. in Dulbecco's modified Eagle's medium (DMEM) in the presence of 10% fetal bovine serum (FBS) (24-well plate, 1.0×10^5 cells/well). After replacing with fresh DMEM (+10% FBS) containing a test compound dissolved in 0.5% dimethyl sulfoxide (DMSO) (prepared to a concentration of 12.5 μM) or a solvent control (0.5% DMSO), the cells were cultured for 32 hours at 37° C. After recovering the culture supernatant, EPO concentration in the culture supernatant was quantified using human EPO ELISA kits (StemCell Technologies). The EPO concentration obtained using each test compound was expressed as a multiple of the EPO concentration obtained using the control.
For the molecule `CC(=O)Nc1c[nH]n(-c2ccc(C(=O)Nc3ccc(C4CCCCC4)cc3)cn2)c1=O` [Example 1, 6-(4-Acetamido-5-oxo-2,5-dihydro-1H-pyrazol-1-yl)-N-(4-cyclohexylphenyl)nicotinamide], the fold induction at 12.5 µM came out at 37.

On to `CC(=O)Nc1c[nH]n(-c2ccc(C(=O)Nc3ccc(C(C)(C)C)cc3)cn2)c1=O` [Example 2, 6-(4-Acetamido-5-oxo-2,5-dihydro-1H-pyrazol-1-yl)-N-(4-tert-butylphenyl)nicotinamide], for which the fold induction at 12.5 µM was determined as 36.

In the case of `CC(=O)Nc1c[nH]n(-c2ccc(C(=O)Nc3cccc(C(C)(C)C)c3)cn2)c1=O` [Example 3, 6-(4-Acetamido-5-oxo-2,5-dihydro-1H-pyrazol-1-yl)-N-(3-tert-butylphenyl)nicotinamide], the fold induction at 12.5 µM came to 17.

Regarding `CC(=O)Nc1c[nH]n(-c2ccc(C(=O)Nc3ccc(C(F)(F)F)cc3)cn2)c1=O` [Example 4, 6-(4-Acetamido-5-oxo-2,5-dihydro-1H-pyrazol-1-yl)-N-[4-(trifluoromethyl)phenyl]nicotinamide], the fold induction at 12.5 µM turned out to be 17.

As to `CC(=O)Nc1c[nH]n(-c2ccc(C(=O)Nc3ccc(Cl)cc3)cn2)c1=O` [Example 5, 6-(4-Acetamido-5-oxo-2,5-dihydro-1H-pyrazol-1-yl)-N-(4-chlorophenyl)nicotinamide], the fold induction at 12.5 µM was 12.

`CC(=O)Nc1c[nH]n(-c2cc(N3CCOCC3)ncn2)c1=O` [Example 6, N-[2-(6-Morpholin-4-ylpyrimidin-4-yl)-3-oxo-2,3-dihydro-1H-pyrazol-4-yl]acetamide formate]: the fold induction at 12.5 µM came to 13.

As for `CC(=O)Nc1c[nH]n(-c2cc(N3CCCCC3)ncn2)c1=O` [Example 7, N-[3-Oxo-2-(6-piperidin-1-ylpyrimidin-4-yl)-2,3-dihydro-1H-pyrazol-4-yl]acetamide formate], the fold induction at 12.5 µM was determined as 29.

Take `CC(=O)Nc1c[nH]n(-c2ccc(COCc3ccccc3)cn2)c1=O` [Example 8, N-(2-{5-[(Benzyloxy)methyl]pyridin-2-yl}-3-oxo-2,3-dihydro-1H-pyrazol-4-yl)acetamide]: the fold induction at 12.5 µM is 26.

`CC(=O)Nc1c[nH]n(-c2cc(NCCc3ccccc3)ncn2)c1=O` [Example 9, N-(3-Oxo-2-{6-[(2-phenylethyl)amino]pyrimidin-4-yl}-2,3-dihydro-1H-pyrazol-4-yl)acetamide]: the fold induction at 12.5 µM was 6.1.

`CC(=O)Nc1c[nH]n(-c2cc(COCc3ccccc3)ccn2)c1=O` [Example 10, N-(2-{4-[(Benzyloxy)methyl]pyridin-2-yl}-3-oxo-2,3-dihydro-1H-pyrazol-4-yl)acetamide]: the fold induction at 12.5 µM was 23.

As to `CC(=O)Nc1c[nH]n(-c2ccc(C(=O)NCc3cccc(-c4ccccc4)c3)cn2)c1=O` [Example 11, 6-(4-Acetamido-5-oxo-2,5-dihydro-1H-pyrazol-1-yl)-N-(biphenyl-3-ylmethyl)nicotinamide], the fold induction at 12.5 µM was determined as 41.

For the molecule `CC(=O)Nc1c[nH]n(-c2ccc(C(=O)NCc3ccc(-c4ccccc4C#N)cc3)cn2)c1=O` [Example 12, 6-(4-Acetamido-5-oxo-2,5-dihydro-1H-pyrazol-1-yl)-N-[(2′-cyanobiphenyl-4-ylmethyl)]nicotinamide], the fold induction at 12.5 µM came to 2.8.

With `CC(=O)Nc1c[nH]n(-c2ccc(COCc3ccc(-c4ccccc4C#N)cc3)cn2)c1=O` [Example 13, N-[2-(5-{[(2′-Cyanobiphenyl-4-yl)methoxy]methyl}pyridin-2-yl)-3-oxo-2,3-dihydro-1H-pyrazol-4-yl]acetamide], the fold induction at 12.5 µM worked out at 29.

As to `CC(=O)Nc1c[nH]n(-c2ccc(COCc3ccc(-c4ccccc4)cc3)cn2)c1=O` [Example 14, N-(2-{5-[(Biphenyl-4-ylmethoxy)methyl]pyridin-2-yl}-3-oxo-2,3-dihydro-1H-pyrazol-4-yl)acetamide], the fold induction at 12.5 µM worked out at 22.

Regarding `CC(=O)Nc1c[nH]n(-c2ccc(COCc3cccc(-c4ccccc4)c3)cn2)c1=O` [Example 15, N-(2-{5-[(Biphenyl-3-ylmethoxy)methyl]pyridin-2-yl}-3-oxo-2,3-dihydro-1H-pyrazol-4-yl)acetamide], the fold induction at 12.5 µM is 24.

Turning to `CC(=O)Nc1c(C)[nH]n(-c2ccc(C(=O)Nc3ccc(C(F)(F)F)cc3)cn2)c1=O` [Example 16, 6-(4-Acetamido-3-methyl-5-oxo-2,5-dihydro-1H-pyrazol-1-yl)-N-[4-(trifluoromethyl)phenyl]nicotinamide], the fold induction at 12.5 µM worked out at 3.4.

Take `CC(=O)Nc1c(C)[nH]n(-c2ccc(C(=O)Nc3ccc(Cl)cc3)cn2)c1=O` [Example 17, 6-(4-Acetamido-3-methyl-5-oxo-2,5-dihydro-1H-pyrazol-1-yl)-N-(4-chlorophenyl)nicotinamide]: the fold induction at 12.5 µM stood at 4.3.

For `CC(=O)Nc1c(C)[nH]n(-c2ccc(C(=O)Nc3ccc(Br)cc3)cn2)c1=O` [Example 18, 6-(4-Acetamido-3-methyl-5-oxo-2,5-dihydro-1H-pyrazol-1-yl)-N-(4-bromophenyl)nicotinamide], the fold induction at 12.5 µM stood at 3.3.

On to `CC(=O)Nc1c(C)[nH]n(-c2ccc(C(=O)Nc3ccc(C(C)(C)C)cc3)cn2)c1=O` [Example 19, 6-(4-Acetamido-3-methyl-5-oxo-2,5-dihydro-1H-pyrazol-1-yl)-N-(4-tert-butylphenyl)nicotinamide], for which the fold induction at 12.5 µM was 13.

With `CC(=O)Nc1c(C)[nH]n(-c2ccc(C(=O)Nc3ccc(-c4ccccc4)nc3)cn2)c1=O` [Example 20, 6-(4-Acetamido-3-methyl-5-oxo-2,5-dihydro-1H-pyrazol-1-yl)-N-(6-phenylpyridin-3-yl)nicotinamide], the fold induction at 12.5 µM was found to be 3.7.

In the case of `CC(=O)Nc1c(C)[nH]n(-c2ccc(COCc3ccc(-c4ccccc4C#N)cc3)cn2)c1=O` [Example 21, N-[2-(5-{[(2′-Cyanobiphenyl-4-yl)methoxy]methyl}pyridin-2-yl)-5-methyl-3-oxo-2,3-dihydro-1H-pyrazol-4-yl]acetamide], the fold induction at 12.5 µM came out at 20.

As for `Cc1[nH]n(-c2ccc(C(=O)Nc3ccc(-c4ccccc4)nc3)cn2)c(=O)c1NC(=O)CCC(=O)OC(C)(C)C` [Example 22, Tert-butyl 4-[(5-methyl-3-oxo-2-{5-[(6-phenylpyridyl-3-yl)carbamoyl]pyridin-2-yl}-2,3-dihydro-1H-pyrazol-4-yl)amino]-4-oxobutanoate], the fold induction at 12.5 µM was found to be 1.9.

Take `Cc1[nH]n(-c2ccc(C(=O)Nc3ccc(-c4ccccc4)nc3)cn2)c(=O)c1NC(=O)CCC(=O)O` [Example 23, 4-[(5-Methyl-3-oxo-2-{5-[(6-phenylpyridyl-3-yl)carbamoyl]pyridin-2-yl}-2,3-dihydro-1H-pyrazol-4-yl)amino]-4-oxobutanoic acid]: the fold induction at 12.5 µM worked out at 2.7.

Turning to `CC(=O)Nc1c(C)[nH]n(-c2ccc(COCc3ccc(C(F)(F)F)cc3)cn2)c1=O` [Example 24, N-{5-Methyl-3-oxo-2-[5-({[4-(trifluoromethyl)benzyl]oxy}methyl)pyridin-2-yl]-2,3-dihydro-1H-pyrazol-4-yl}acetamide], the fold induction at 12.5 µM came out at 22.

Take `CC(=O)Nc1c(C)[nH]n(-c2ccc(Cc3ccc(C(F)(F)F)cc3)cn2)c1=O` [Example 25, N-(5-Methyl-3-oxo-2-{5-[4-(trifluoromethyl)benzyl]pyridin-2-yl}-2,3-dihydro-1H-pyrazol-4-yl)acetamide]: the fold induction at 12.5 µM was 16.

`CC(=O)Nc1c(C)[nH]n(-c2ccc(CCc3ccc(C(F)(F)F)cc3)cn2)c1=O` [Example 26, N-[5-Methyl-3-oxo-2-(5-{2-[4-(trifluoromethyl)phenyl]ethyl}pyridin-2-yl)-2,3-dihydro-1H-pyrazol-4-yl]acetamide]: the fold induction at 12.5 µM is 22.

As for `CC(=O)Nc1c(C)[nH]n(-c2ccc(/C=C/c3ccc(C(F)(F)F)cc3)cn2)c1=O` [Example 27, N-[5-Methyl-3-oxo-2-(5-{(E)-2-[4-(trifluoromethyl)phenyl]ethenyl}pyridin-2-yl)-2,3-dihydro-1H-pyrazol-4-yl]acetamide], the fold induction at 12.5 µM came to 2.7.
